The values below come from patent US9326516B2, “Molecules having certain pesticidal utilities, and intermediates, compositions, and processes related thereto” (Dow AgroSciences LLC, priority 2014, dated 2016).

Assay type in all cases: in vivo
Data set [1] relates to Beet Armyworm (Spodoptera exigua, LAPHEG). The data set can be described thus: Bioassay on Beet Armyworm (BAW), 128-well diet tray assay. The following applies: 168 h, 50 μg/cm^2 on artificial diet, second instar BAW larvae, 25° C., five to seven days, average of eight wells, read-out: BAW % Control (or Mortality) rating. As to the method: (§1) Certain molecules disclosed in this document were tested against BAW and CEW using procedures described in the following examples. In the reporting of the results, the “BAW & CL Rating Table” was used (See Table Section).
Bioassays on BAW were conducted using a 128-well diet tray assay. one to five second instar BAW larvae were placed in each well (3 mL) of the diet tray that had been previously filled with 1 mL of artificial diet to which 50 μg/cm^2 of the test compound (dissolved in 50 μL of 90:10 acetone-water mixture) had been applied (to each of eight wells) and then allowed to dry. Trays were covered with a clear self-adhesive cover and held at 25° C., 14:10 light-dark for five to seven days. Percent mortality was recorded for the larvae in each well; activity in the eight wells was then averaged. The results are indicated in the table entitled “Table ABC: Biological Results” (See Table Section).

Data set [2] deals with Cabbage Looper (Trichoplusia ni, TRIPNI). The data set can be described thus: Bioassay on Cabbage Looper (CL), 128-well diet tray assay. The conditions noted are these: 168 h, 50 μg/cm^2 on artificial diet, second instar CL larvae, 25° C., five to seven days, average of eight wells, read-out: CL % Control (or Mortality) rating. On the procedure:
as §1
Bioassays on CL were conducted using a 128-well diet tray assay, one to five second instar CL larvae were placed in each well (3 mL) of the diet tray that had been previously filled with 1 mL of artificial diet to which 50 μg/cm^2 of the test compound (dissolved in 50 μL of 90:10 acetone-water mixture) had been applied (to each of eight wells) and then allowed to dry. Trays were covered with a clear self-adhesive cover and held at 25° C., 14:10 light-dark for five to seven days. Percent mortality was recorded for the larvae in each well; activity in the eight wells was then averaged. The results are indicated in the table entitled “Table ABC: Biological Results” (See Table Section).

Data set [3] has as its system Yellow Fever Mosquito (Aedes aegypti, AEDSAE). The following applies: about 1 day-old larvae, master plate 4000 ppm in DMSO diluted, room temperature, scored after 3 days on mortality. As to the method:
Certain molecules disclosed in this document were tested against YFM using procedures described in the following paragraph. In the reporting of the results, the “YFM Rating Table” was used (See Table Section).
Master plates containing 400 μg of a molecule dissolved in 100 μL of dimethyl sulfoxide (DMSO) (equivalent to a 4000 ppm solution) are used. A master plate of assembled molecules contains 15 μL per well. To this plate, 135 μL of a 90:10 water:acetone mixture is added to each well. A robot (Biomek® NXP Laboratory Automation Workstation) is programmed to dispense 15 μL aspirations from the master plate into an empty 96-well shallow plate (“daughter” plate). There are 6 reps (“daughter” plates) created per master. The created daughter plates are then immediately infested with YFM larvae.
The day before plates are to be treated, mosquito eggs are placed in Millipore water containing liver powder to begin hatching (4 g. into 400 mL). After the daughter plates are created using the robot, they are infested with 220 μL of the liver powder/larval mosquito mixture (about 1 day-old larvae). After plates are infested with mosquito larvae, a non-evaporative lid is used to cover the plate to reduce drying. Plates are held at room temperature for 3 days prior to grading. After 3 days, each well is observed and scored based on mortality.

Data set [4] relates to Green Peach Aphid (Myzus persicae, MYZUPE). Briefly: Bioassay on Green Peach Aphid (GPA), foliar spray on cabbage seedlings. The following applies: 72 h, 200 ppm spray on infested cabbage seedlings, graded after three days, Abbott corrected % control, read-out: GPA % Control (or Mortality) rating. As to the method: Certain molecules disclosed in this document were tested against GPA using procedures described in the following example. In the reporting of the results, the “GPA Rating Table” was used (See Table Section).
Cabbage seedlings grown in 3-inch pots, with 2-3 small (3-5 cm) true leaves, were used as test substrate. The seedlings were infested with 20-50 GPA (wingless adult and nymph stages) one day prior to chemical application. Four pots with individual seedlings were used for each treatment. Test compounds (2 mg) were dissolved in 2 mL of acetone/methanol (1:1) solvent, forming stock solutions of 1000 ppm test compound. The stock solutions were diluted 5× with 0.025% Tween 20 in water to obtain the solution at 200 ppm test compound. A hand-held aspirator-type sprayer was used for spraying a solution to both sides of […] leaves until runoff. Reference plants (solvent check) were sprayed with the diluent only containing 20% by volume of acetone/methanol (1:1) solvent. Treated plants were held in a holding room for three days at approximately 25° C. and ambient relative humidity (RH) prior to grading. Evaluation was conducted by counting the number of live aphids per plant under a microscope. Percent Control was measured by using Abbott's correction formula (W. S. Abbott, “A Method of Computing the Effectiveness of an Insecticide” J. Econ. Entomol. 18 (1925), pp. 265-267) as follows. Corrected % Control=100*(X−Y)/X where X=No. of live aphids on solvent check plants and Y=No. of live aphids on treated plants

Take `FC(F)(F)Oc1ccc(-n2cnc(-c3ccc(NC4=N[C@H](c5ccccc5)CO4)cc3)n2)cc1` [Compound F1, (R)-4-Phenyl-N-(4-(1-(4-(trifluoromethoxy)phenyl)-1H-1,2,4-triazol-3-yl)phenyl)-4,5-dihydrooxazol-2-amine]: the mortality at 50 µg/cm2 in data set [1] and in data set [2] was 50 to 100% in each case. In addition, the “YFM % Control (or Mortality) rating” value in data set [3] is reported as “B (More than 0-Less than 80)”. In addition, the mortality (as a rule, the percentage killed) at 200 ppm in data set [4] is 80 to 100%.
For the compound `FC(F)(F)Oc1ccc(-n2cnc(-c3ccc(NC4=N[C@@H](c5ccccc5)CO4)cc3)n2)cc1` [Compound F2, (S)-4-Phenyl-N-(4-(1-(4-(trifluoromethoxy)phenyl)-1H-1,2,4-triazol-3-yl)phenyl)-4,5-dihydrooxazol-2-amine], the mortality at 50 µg/cm2 in data set [1] and in data set [2] was 50 to 100% each time. For the same compound, the “YFM % Control (or Mortality) rating” value in data set [3] was “B (More than 0-Less than 80)”. The mortality at 200 ppm in data set [4] was 80 to 100%.
For `FC(F)(F)Oc1ccc(-n2cnc(-c3ccc(NC4=NC(c5ccc(C(F)(F)F)cc5)CO4)cc3)n2)cc1` (centres unmarked) [Compound F5, N-(4-(1-(4-(Trifluoromethoxy)phenyl)-1H-1,2,4-triazol-3-yl)phenyl)-4-(4-(trifluoromethyl)phenyl)-4,5-dihydrooxazol-2-amine], the mortality at 50 µg/cm2 in data set [1] and in data set [2] was 50 to 100% each time. Moreover, in data set [3], the “YFM % Control (or Mortality) rating” value is “B (More than 0-Less than 80)”. In addition, the mortality at 200 ppm in data set [4] was 80 to 100%.
Turning to `FC(F)(F)Oc1ccc(-n2cnc(-c3ccc(NC4=NC(c5ccccc5Cl)CO4)cc3)n2)cc1` (centres unmarked) [Compound F11, 4-(2-Chlorophenyl)-N-(4-(1-(4-(trifluoromethoxy)phenyl)-1H-1,2,4-triazol-3-yl)phenyl)-4,5-dihydrooxazol-2-amine], the mortality at 50 µg/cm2 in data set [1] and in data set [2] was 50 to 100% each time. Further, in data set [3], the “YFM % Control (or Mortality) rating” value was “D (No activity noticed in this bioassay)”. In addition, the mortality at 200 ppm in data set [4] amounted to 0%.
For the compound `FC(F)(F)Oc1ccc(-n2cnc(-c3ccc(NC4=N[C@H](c5ccccc5)CCO4)cc3)n2)cc1` [Compound F20, (S)-4-Phenyl-N-(4-(1-(4-(trifluoromethoxy)phenyl)-1H-1,2,4-triazol-3-yl)phenyl)-5,6-dihydro-4H-1,3-oxazin-2-amine], the mortality at 50 µg/cm2 in data set [1] was 0%; in data set [2], 50 to 100%. Further, in data set [3], the “YFM % Control (or Mortality) rating” value is “B (More than 0-Less than 80)”. For the same compound, the mortality at 200 ppm in data set [4] lay in the range of 80 to 100%.
For the compound `Cc1cc(C2CSC(Nc3ccc(-c4ncn(-c5ccc(C(F)(F)F)cc5)n4)cc3)=N2)ccc1Cl` (centres unmarked) [Compound F42, 4-(4-Chloro-3-methylphenyl)-N-(4-(1-(4-(trifluoromethyl)phenyl)-1H-1,2,4-triazol-3-yl)phenyl)-4,5-dihydrothiazol-2-amine], the mortality at 50 µg/cm2 in data set [1] and in data set [2] was 0% in each case. Moreover, the mortality at 200 ppm in data set [4] was 0%.
In the case of `FC(F)(F)Oc1ccc(-n2cnc(-c3ccc(NC4=NC(c5ccc(Cl)cc5)CCO4)cc3)n2)cc1` (centres unmarked) [Compound F43, 4-(4-Chlorophenyl)-N-(4-(1-(4-(trifluoromethoxy)phenyl)-1H-1,2,4-triazol-3-yl)phenyl)-5,6-dihydro-4H-1,3-oxazin-2-amine], the mortality at 50 µg/cm2 is 0 to 50% in data set [1] and 50 to 100% in data set [2]. The “YFM % Control (or Mortality) rating” value in data set [3] was “B (More than 0-Less than 80)”. Moreover, in data set [4], the mortality at 200 ppm lay in the range of 80 to 100%.
In the case of `Cc1ccc(C2CCOC(Nc3ccc(-c4ncn(-c5ccc(OC(F)(F)F)cc5)n4)cc3)=N2)cc1` (centres unmarked) [Compound F44, 4-(p-Tolyl)-N-(4-(1-(4-(trifluoromethoxy)phenyl)-1H-1,2,4-triazol-3-yl)phenyl)-5,6-dihydro-4H-1,3-oxazin-2-amine], the mortality at 50 µg/cm2 in data set [1] is 0 to 50%; in data set [2], 50 to 100%. Besides, the “YFM % Control (or Mortality) rating” value in data set [3] is on record as “B (More than 0-Less than 80)”. The mortality at 200 ppm in data set [4] was in the range of 80 to 100%.
On to `FC(F)(F)Oc1ccc(-n2cnc(-c3ccc(NC4=NC(c5ccc(C(F)(F)F)cc5)CCO4)cc3)n2)cc1` (centres unmarked) [Compound F45, N-(4-(1-(4-(Trifluoromethoxy)phenyl)-1H-1,2,4-triazol-3-yl)phenyl)-4-(4-(trifluoromethyl)phenyl)-5,6-dihydro-4H-1,3-oxazin-2-amine], for which the mortality at 50 µg/cm2 in data set [1] and in data set [2] was 50 to 100% each time. In data set [3], the “YFM % Control (or Mortality) rating” value is recorded as “B (More than 0-Less than 80)”. In data set [4], the mortality at 200 ppm was 80 to 100%.
